Consider five compounds from BindingDB's records for doi:10.1016/j.bioorg.2016.01.007 (Universiti Teknologi Mara (Uitm), Puncak Alam Campus, 2016).

For this assay, the target named is T1, Beta-glucuronidase (Bos taurus, UniProt A3KMY8).
T1 sequence (A3KMY8 whole entry): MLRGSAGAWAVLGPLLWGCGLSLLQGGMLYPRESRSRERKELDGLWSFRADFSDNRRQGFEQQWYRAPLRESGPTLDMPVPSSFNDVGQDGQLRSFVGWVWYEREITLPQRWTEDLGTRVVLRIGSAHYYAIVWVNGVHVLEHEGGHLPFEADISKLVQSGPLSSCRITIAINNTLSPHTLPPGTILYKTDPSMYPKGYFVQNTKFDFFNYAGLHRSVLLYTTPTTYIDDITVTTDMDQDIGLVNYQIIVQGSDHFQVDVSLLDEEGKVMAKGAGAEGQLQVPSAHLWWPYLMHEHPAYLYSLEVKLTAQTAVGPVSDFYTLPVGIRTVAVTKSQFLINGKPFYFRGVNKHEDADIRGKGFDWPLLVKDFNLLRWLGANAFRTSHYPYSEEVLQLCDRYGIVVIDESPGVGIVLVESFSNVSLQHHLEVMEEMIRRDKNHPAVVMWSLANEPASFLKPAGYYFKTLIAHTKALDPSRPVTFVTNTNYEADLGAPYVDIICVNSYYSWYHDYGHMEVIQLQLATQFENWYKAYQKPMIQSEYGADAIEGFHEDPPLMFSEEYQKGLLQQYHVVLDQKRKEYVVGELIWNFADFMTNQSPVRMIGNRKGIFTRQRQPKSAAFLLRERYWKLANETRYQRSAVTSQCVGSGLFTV
The assay can be described thus: β-Glucuronidase Inhibition Assay. As for the experimental part: The total reaction volume was set at 250 µL. The reaction mixture comprises of 185 µL of 0.1 M acetate buffer, 5 µL of test compound solution, 10 µL of enzyme solution and incubated at 37 °C for 30 min. […] All assays were carried out in triplicate.
Take `COc1ccc(O)c(-c2nc3ncc(Cl)cc3[nH]2)c1` [2-(6-Chloro-1H-imidazo[4,5-b]pyridin-2-yl)-4-methoxyphenol (13)]: it took 129 µM to reach half-maximal inhibition (IC50).
Regarding `COc1ccc(-c2nc3ncc(Cl)cc3[nH]2)c(O)c1` [2-(6-Chloro-1H-imidazo[4,5-b]pyridin-2-yl)-5-methoxyphenol (19)], the IC50 (commonly the midpoint of a concentration-inhibition curve) was 114 µM.
The compound `Oc1cccc(-c2nc3ncc(Cl)cc3[nH]2)c1` [3-(6-Chloro-1H-imidazo[4,5-b]pyridin-2-yl)phenol (8)] had an IC50 of 68.1 µM.
Regarding `Oc1ccc(-c2nc3ncc(Cl)cc3[nH]2)c(O)c1` [4-(6-Chloro-1H-imidazo[4,5-b]pyridin-2-yl)benzene-1,3-diol (2)], the IC50 is 49.6 µM.
Turning to `Oc1ccc(-c2nc3ncc(Cl)cc3[nH]2)cc1` [4-(6-Chloro-1H-imidazo[4,5-b]pyridin-2-yl)phenol (26)], the midpoint of inhibition, the IC50, lay at 52.6 µM.
